Test results: patent US6465631B1, “Lipid a 4′ kinase” (Duke University, priority 1997, dated 2002)

Target: T1, lipid A 4′ kinase (Escherichia coli, UniProt P27300)
T1 construct: The first primer introduces a Nde I site at the start codon of orfE, and the second primer introduces a BamHl site downstream of the stop codon; made in house; host or cells: E. coli BLR(DE3)pLysS/pJK2 (pET3a, T7 promoter); Controls with chromosomal kinase only: BR7 membranes and BLR(DE3)pLysS/pET3a fractions
Experiment: 4′ kinase assay method II ([γ-32P]ATP donor, lipid acceptor, TLC)
Type: biochemical, E. coli
Conditions: for utilisation as substrate of the 4′ kinase (in words): recombinant, overexpressed 4′ kinase (BLR(DE3)pLysS/pJK2 membranes); for 32P from input [γ-32P]-ATP incorporated into 4′-phosphorylated product (yield): 0.6 μM [γ-32P]ATP, 100 μM lipid acceptor, 10 min, 30° C.
Description: FIG. 12: Effective phosphorylation of DS-1-P and DS-1-P analogs with recombinant, overproduced 4′ kinase. Washed membranes from strain BR7 and BLR(DE3)pLysS/pJK2 were used, as indicated, in 4′ kinase assays containing 100 μM of the indicated DS-1-P analog, 0.6 μM [γ-^32P] ATP, 50 mM Tris, pH 8.5, 5 mM MgCl2, 1% NP-40, 1 mg/ml cardiolipin and 0.5 mg/ml washed membranes. After a 10 minute incubation at 30° C., 5 μl of the reaction was spotted onto a Silica Gel 60 TLC plate and developed in chloroform:pyridine:formic acid:water (30:70:16:10 v/v). The plate was dried, exposed to a PhosphorImager screen and visualized using ImageQuant software. Arrows indicate the products of the reactions. If the native substrate DS-1-P is present in the reaction, [4′-^32P]-lipid IVA is formed. When 3-aza-DS-1-P, base-treated DS-1-P, or base-treated 3-aza-DS-1-P are present, 4′ phosphorylated products a, b and c are formed, respectively. The migration of each of these products is slower than the non-phosphorylated substrate analog, consistent with the phosphate incorporation. As in FIG. 9, BLR/pJK2 is an abbreviation for BLR(DE3)pLysS/pJK2, and NE indicates the no enzyme control. […] Minor ^32P containing lipids generated by membranes of BLR(DE3)pLysS/pJK2 in the absence of any acceptor substrate arise by the action of diglyceride kinase on endogenous glycerophospholipids (see especially Lane 6). The diglyceride kinase is inactivated by mutation in strain BR7 (Hampton et al, Methods in Enzymology 209:466 (1992)).
Assays for 4′ kinase activity. Two methods for analyzing 4′ kinase activity of various protein fractions were employed. The first (method I) utilizes DS-1-^32P as the labeled substrate. Typically, 100 μM DS-1-^32P (1000 cpm/nmol), 1 mg/ml cardiolipin, 50 mM Tris, pH 8.5, 5 mM ATP, 1% NP-40, and 5 mM MgCl2 are mixed with 0.5-500 μg/ml protein fraction and incubated at 30° C. for various times. Reactions were stopped by spotting a portion of the reaction onto a Silica Gel 60 thin layer chromatography plate. Plates were developed in chloroform:methanol:water:acetic acid (25:15:4:2, v/v) and analyzed as described above. Method II (which is not intended for the quantitative determination of specific activities) utilizes [γ-^32P] ATP (˜8×10^6 cpm/nmol) as the labeled substrate. The reaction conditions are exactly the same as for method I except that the ATP concentration is lowered to 0.6 μM and only non-radioactive DS-1-P (final concentration of 100 μM) is added. The reactions were stopped as described above, and plates were developed in chloroform:pyridine:formic acid:water (30:70:16:10, v/v).
Each lipid analog was tested as a 4′ kinase substrate using recombinant, overexpressed 4′ kinase in conjunction with the method II assay conditions (0.6 μM [γ-^32P]-ATP as the phosphate donor and 100 μM lipid acceptor). DS-1-P becomes phosphorylated to form [4′-^32P]-lipid IVA by BR7 membranes (containing wild-type kinase levels), but only with a yield of ˜0.5% (FIG. 11, lane 2). When BLR(DE3)pLysS/pJK2 membranes are used (FIG. 12, lane 7) more than 50% of the ^32P is incorporated into [4′-^32P]-lipid IVA. […] Products (b) and (c) are formed from base-treated DS-1-P and base treated 3-aza-DS-1-P, respectively.

T1 sequence (P27300 whole entry): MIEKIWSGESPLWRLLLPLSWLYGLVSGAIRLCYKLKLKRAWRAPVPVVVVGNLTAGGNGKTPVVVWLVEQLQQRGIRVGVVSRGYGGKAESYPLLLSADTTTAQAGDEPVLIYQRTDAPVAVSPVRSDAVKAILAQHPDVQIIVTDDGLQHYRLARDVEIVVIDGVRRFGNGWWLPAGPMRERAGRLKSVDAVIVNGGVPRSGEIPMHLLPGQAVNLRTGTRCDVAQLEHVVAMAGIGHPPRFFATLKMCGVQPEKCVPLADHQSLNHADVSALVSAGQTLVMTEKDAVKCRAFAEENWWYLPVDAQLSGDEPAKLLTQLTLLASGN

| Molecule | utilisation as substrate of the 4′ kinase (in words) | 32P from input [γ-32P]-ATP incorporated into 4′-phosphorylated product (yield) (BLR(DE3)pLysS/pJK2 membranes (recombinant, overexpressed 4′ kinase)) | 32P from input [γ-32P]-ATP incorporated into 4′-phosphorylated product (yield) (BR7 membranes (wild-type kinase levels)) [%] |
| --- | --- | --- | --- |
| 2,3-diacyl-glucosamine-1-phosphate [Lipid X] | not substrates | – | – |
| CCCCCCCCCCC[C@@H](O)CC(=O)N[C@H]1[C@H](OC[C@H]2O[C@H](OP(=O)(O)O)[C@H](NC(=O)C[C@H](O)CCCCCCCCCCC)[C@@H](OC(=O)C[C@H](O)CCCCCCCCCCC)[C@@H]2O)O[C@H](CO)[C@@H](O)[C@@H]1OC(=O)C[C@H](O)CCCCCCCCCCC [DS-1-P, tetraacyldisaccharide-1-phosphate] | large amount | more than 50% | ~0.5 |
| UDP-2,3-diacyl-glucosamine [UDP-diacylglucosamine] | not substrates | – | – |
